Data: US7960606B2, “Mouse model of chronic heart failure and coronary atherosclerosis regression” (The J. David Gladstone Institutes, priority 2006, dated 2011)

Key:
SR-BI knockout females = details: administered during the breeding protocol; Miettinen et al. 2001; cited from earlier work
[1] = tested on: Apoe^h/hSRB1^−/−Mx1-Cre mice; assay: Survival of diet-induced heart attacks in Apoe^h/hSRB1^−/−Mx1-Cre mice after pI-pC injection and switch to low fat diet; assay type: in vivo
Source text: The animal model was created by breeding Apoe^h/hSRB1^−/− mice to mice that carry the inducible Mx1-Cre transgene, resulting in Apoe^h/hSRB1^−/−Mx1-Cre mice that are sensitive to diet-induced coronary atherosclerosis and develop fatal myocardial infarctions within 35 days of dietary challenge. However, this new strain of mice can survive its heart attacks if switched to a normal low fat diet and given a single intrapentoneal injection of polyinosinic polycytidylic ribonucleic acid (pI-pC). […] Surviving Apoe^h/hSRB1^−/−MX1-Cre mice can then live for many months. Upon histological analysis of their heart, there is evidence of myocardial infarction and ventricular enlargement. Consequently, the surviving Apoe^h/hSRB1^−/−Mx1-Cre mice are a unique murine model of chronic heart failure that simulates chronic heart failure in humans who survive heart attacks caused by coronary atherosclerosis.
10 Apoe^h/hSRB1^−/−Mx1-Cre mice were fed a high cholesterol diet for 30 days. On day 31, they were injected with pI-pC, and then switched to a low fat diet. Of the 10 mice, 6 survived for two months. At that time point, their hearts were harvested and heart function was assessed in 4 of the 6 mice by Langendorf hemodynamic measurements.

CC(C)(Sc1cc(C(C)(C)C)c(O)c(C(C)(C)C)c1)Sc1cc(C(C)(C)C)c(O)c(C(C)(C)C)c1 [probucol]
fertility in the SR-BI knockout females (SR-BI knockout females): restore fertility

polyinosinic polycytidylic ribonucleic acid [pI-pC]
mice surviving for two months (of 10) ([1]; high cholesterol diet for 30 days, pI-pC injected on day 31, then low fat diet, 10 mice): 6
blood cholesterol levels ([1]; single intraperitoneal injection, activates Mx1-Cre gene, restores normal Arg-61 apoE levels in blood): rapidly and permanently lowers blood cholesterol levels in a few days
